Measurements: patent publication US4185156A, “Peptides and acid addition salts thereof” (Zaidan Hojin Biseibutsu Kagaku Kenkyu Kai, priority 1977, dated 1980)

Experiments:
[1] = test system: lymphocytes from the peripheral blood of healthy canines; experiment: Lymphocyte blastoid transformation with phytohemagglutinin (PHA), 3H-Thymidine incorporation; type: cell-based, canines (Beagle, Male); details: for 3H-Td.eta. incorporation (mean cpm ± SE): PHA + compound, canine lymphocytes, 72 hrs culture; for effect on lymphocyte blastoid formation with PHA (in words): summary of table 2
Procedure: Lymphocytes were prepared asptically from the peripheral blood of healthy canines (Beagle, Male) by gradient centrifugation of ficollsodium metriazoate. The lymphocytes (1×10^6 cells/ml) were cultured in RPMI-1640 medium with 10% fetal calf serum, antibiotic (Kanamycin 60μg/ml) and 15μg of phytohemagglutinin(PHA) at 37° C. in a humidified atomosphere of 5% CO2 and 95% air. After an incubation for 48 hrs, 2μCi of ^3 H-Thymidine was added to each dish, and the culture was continued for further 24 hrs to determine DNA synthesis. DNA synthesis was measured as ^3 H-Thymidine incorporation into acid in soluble materials.

aminopeptidase B [2] = biological target: T1, aminopeptidase B (Rattus norvegicus, UniProt O09175); experiment: Inhibitory activity against aminopeptidase B (modified Hopsu et al. method, arginine-β-naphthylamide substrate); type: biochemical; details: pH 7.0, 37° C., 30-minute reaction
T1 construct: an aminopeptidase B solution purified by using Sephadex G-100; from tissue; rat liver in the cited Hopsu et al. method (own knowledge)
T1 sequence (O09175 1-650): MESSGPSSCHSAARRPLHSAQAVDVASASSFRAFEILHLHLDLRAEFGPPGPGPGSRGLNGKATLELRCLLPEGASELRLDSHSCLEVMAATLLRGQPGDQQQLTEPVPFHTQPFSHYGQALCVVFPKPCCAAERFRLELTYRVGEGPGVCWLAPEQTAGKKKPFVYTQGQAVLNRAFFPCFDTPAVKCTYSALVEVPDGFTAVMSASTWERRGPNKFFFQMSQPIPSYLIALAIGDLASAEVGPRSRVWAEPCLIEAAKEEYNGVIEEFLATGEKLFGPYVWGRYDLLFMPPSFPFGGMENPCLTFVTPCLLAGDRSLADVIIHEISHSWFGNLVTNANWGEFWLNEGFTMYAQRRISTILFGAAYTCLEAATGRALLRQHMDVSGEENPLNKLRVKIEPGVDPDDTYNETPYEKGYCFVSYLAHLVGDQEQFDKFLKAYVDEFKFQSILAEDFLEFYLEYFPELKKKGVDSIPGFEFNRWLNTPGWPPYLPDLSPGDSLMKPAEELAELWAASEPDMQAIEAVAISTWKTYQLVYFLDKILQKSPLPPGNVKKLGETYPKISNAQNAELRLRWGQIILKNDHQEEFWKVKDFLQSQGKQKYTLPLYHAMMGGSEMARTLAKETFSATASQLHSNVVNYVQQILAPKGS
Procedure: A modified version of the Hopsu et al. method (V. K. Hopsu, K. K. Makinen and G. G. Glenner, Archives of Biochemistry and Biophysics 114, 557 (1966)) was used for determining the aminopeptidase B activity. A mixed solution (pH 7.0) prepared by adding 1.0 ml of 0.1 M tris-hydrochloride buffer and 0.7 ml of a solution containing the specimen to 0.3 ml of 0.1 mM arginine-β-naphthylamide was heated at 37° C. for 3 minutes and then added with 0.2 ml of an aminopeptidase B solution purified by using Sephadex G-100 (trademark for gelfiltrant composed of dextran derivative, manufactured by Pharmacia Fine Chemicals Inc.) according to the enzyme purification method of Hopsu et al. After 30-minute reaction at 37° C., 0.6 ml of 1.0 M acetate buffer (pH 4.2) containing Garnet GBC (o-aminoazotoluene diazonium salt) in concentration of 1.0 mg/ml and Tween 20 in concentration of 1.0% was added, and allowing the mixture to stand at room temperature for 15 minutes, absorbance (a) at 530 nm was measured. There was also measured absorbance (b) of the control using the buffer solution not containing the specimen. The aminopeptidase B inhibition percent was calculated from (b-a)/b×100.
Inhibition percentages at various specimen concentrations were measured according to the above-said testing method, and 50% inhibition (ID50) was induced therefrom.

aminopeptidase B [3] = biological target: T1, aminopeptidase B; details: prior art; cited from earlier work
leucine aminopeptidase = details: prior art; cited from earlier work
Bleomycin hydrolase = biological target: T2, Bleomycin hydrolase (Homo sapiens, UniProt Q13867); details: prior art; cited from earlier work
T2 sequence (Q13867 1-455): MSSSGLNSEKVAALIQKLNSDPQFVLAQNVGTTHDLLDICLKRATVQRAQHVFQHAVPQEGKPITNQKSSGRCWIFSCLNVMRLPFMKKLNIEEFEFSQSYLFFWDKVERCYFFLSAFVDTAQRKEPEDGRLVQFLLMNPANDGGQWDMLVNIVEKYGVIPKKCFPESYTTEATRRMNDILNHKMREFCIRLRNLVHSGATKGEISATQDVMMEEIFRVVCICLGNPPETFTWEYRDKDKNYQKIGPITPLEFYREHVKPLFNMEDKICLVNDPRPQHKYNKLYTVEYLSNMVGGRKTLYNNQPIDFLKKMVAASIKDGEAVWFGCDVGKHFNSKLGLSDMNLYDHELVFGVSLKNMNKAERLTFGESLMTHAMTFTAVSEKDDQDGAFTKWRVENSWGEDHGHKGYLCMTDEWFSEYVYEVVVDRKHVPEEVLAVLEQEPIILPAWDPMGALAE

SMILES	3H-Td.eta. incorporation (mean cpm ± SE) ([1]; dose 0.1 μg)	3H-Td.eta. incorporation (mean cpm ± SE) ([1]; dose 1.0 μg)	3H-Td.eta. incorporation (mean cpm ± SE) ([1]; dose 10.0 μg)	effect on lymphocyte blastoid formation with PHA (in words) [1]	ID50 (50% inhibition of aminopeptidase B) (aminopeptidase B [2])	inhibitory activity against aminopeptidase B (in words) (aminopeptidase B [3])	inhibitory activity against leucine aminopeptidase (in words) (leucine aminopeptidase)	IC50 (aminopeptidase B [2]; read-out: ID50 (50% inhibition of aminopeptidase B) (converted))	inhibitory activity against Bleomycin hydrolase (in words) (Bleomycin hydrolase)
Cl.N=C(N)NCCC[C@H](NC(=O)[C@@H](O)[C@H](N)Cc1ccccc1)C(=O)O [Example 1, (2S, 3R)-3-amino-2-hydroxy-4-phenylbutanoyl-(S)-arginine hydrochloride]	17278 ± 400 cpm	19940 ± 1412 cpm	19050 ± 1988 cpm	enhance the lymphocyte blastoid formation with PHA	0.03 μ g/ml				
N=C(N)NCCC[C@H](NC(=O)[C@@H](O)[C@H](N)Cc1ccc(O)cc1)C(=O)O [Example 2, (2S, 3R)-3-amino-2-hydroxy-4-p-hydroxyphenylbutanoyl-(S)-arginine diacetate]	23113 ± 1236 cpm	21357 ± 578 cpm	20397 ± 304 cpm	enhance the lymphocyte blastoid formation with PHA	0.005 μ g/ml				
CC(C)C[C@H](NC(=O)[C@@H](O)[C@H](N)Cc1ccccc1)C(=O)O [Bestatin, (2S, 3R)-3-amino-2-hydroxy-4-phenylbutanoyl-(S)-leucine, reference compound]	19450 ± 189 cpm	16173 ± 631 cpm	18683 ± 71 cpm	enhance the lymphocyte blastoid formation with PHA		strong inhibitory activity	strong inhibitory activity	0.324 µM	strong inhibitory activity
Cl.Cl.N=C(N)NCCC[C@H](NC(=O)[C@H](O)[C@H](N)Cc1ccccc1Cl)C(=O)O (racemic) [Example 4, (2RS, 3RS)-3-amino-2-hydroxy-4-o-chlorophenylbutanoyl-(S)-arginine dihydrochloride]					0.14 μ g/ml				
CC(=O)O.CC(=O)O.Cc1ccc(CC(N)C(O)C(=O)NC(CCCN=C(N)N)C(=O)O)cc1 (racemic) [Example 3, (2RS, 3RS)-3-amino-2-hydroxy-4-p-methylphenylbutanoyl-(S)-arginine diacetate]					0.013 μ g/ml				
